# Experimental data published in patent US20220162163A1, “ALANINE-BASED MODULATORS OF PROTEOLYSIS AND ASSOCIATED METHODS OF USE” (Arvinas Operations, Inc., priority 2015, published 2022).
# Legend:
# Assay type in all cases: cell-based
# JNK1 = target: T1, JNK1 (Homo sapiens, UniProt P45983); experiment: Cellular assay of JNK degradation (A549 cells, Western blot), JNK1; details: for JNK1 degradation range: PROTAC concentration 1 μM, relative to DMSO control; for DC50: read-out: JNK1 DC50 range
# T1 construct: A549 lung adenocarcinoma cells were purchased from ATCC and cultured in RPMI1640 Medium; endogenous in cells; host or cells: A549
# Method: (§1) Protocol of the cellular assay of JNK degradation (A549 cells, Western blot). A549 lung adenocarcinoma cells were purchased from ATCC and cultured in RPMI1640 Medium (Gibco) supplemented with 10% Fetal Bovine Serum (Gibco). […] Cells were stimulated with PMA (Phorbol 12-myristate 13-acetate, Sigma) for 1 hour before harvesting. Cells were lysed in Cell Signaling lysis buffer supplemented with protease inhibitors (Thermo). The lysates were centrifuged at 20,000×g for 15 minutes to clarify, and protein concentration was determined by BCA (Pierce). Equal amounts of protein (5 micrograms) were separated by SDS-PAGE and transferred onto nitrocellulose membranes. The mermbranes were probed with antibodies against SAPK/JNK (Cell Signaling #9252), phospho-c-Jun (Cell Signaling #3270), MDM2 (Sigma M4308) and p53 (Cell Signaling #2527). HRP-conjugated anti-rabbit and anti-mouse secondary antibodies were from Cell Signaling. The bands were visualized with SuperSignal West Femto Substrate (Thermo). Quantitation was done using Image Lab Software v5.2.1.
# JNK2 = target: T2, JNK2 (Homo sapiens, UniProt P45984); experiment: Cellular assay of JNK degradation (A549 cells, Western blot), JNK2; details: for JNK2 degradation range: PROTAC concentration 1 μM, relative to DMSO control; for DC50: read-out: JNK2 DC50 range
# T2 construct: A549 lung adenocarcinoma cells were purchased from ATCC and cultured in RPMI1640 Medium; endogenous in cells; host or cells: A549
# Method: as §1
# Androgen receptor (AR) = target: T3, Androgen receptor (AR) (Homo sapiens, UniProt P10275); experiment: Cellular assay of androgen receptor (AR) degradation (VCaP cells, ELISA); details: for Dmax at 1 µM: 4 h, androgen receptor, VCaP cells, PROTAC concentration 1 μM, relative to DMSO control, read-out: Target protein degradation range; for Androgen receptor (AR) degradation in VCaP cells: @ 1 μM
# T3 construct: endogenous in cells; host or cells: VCaP
# T3 sequence (P10275 1-920): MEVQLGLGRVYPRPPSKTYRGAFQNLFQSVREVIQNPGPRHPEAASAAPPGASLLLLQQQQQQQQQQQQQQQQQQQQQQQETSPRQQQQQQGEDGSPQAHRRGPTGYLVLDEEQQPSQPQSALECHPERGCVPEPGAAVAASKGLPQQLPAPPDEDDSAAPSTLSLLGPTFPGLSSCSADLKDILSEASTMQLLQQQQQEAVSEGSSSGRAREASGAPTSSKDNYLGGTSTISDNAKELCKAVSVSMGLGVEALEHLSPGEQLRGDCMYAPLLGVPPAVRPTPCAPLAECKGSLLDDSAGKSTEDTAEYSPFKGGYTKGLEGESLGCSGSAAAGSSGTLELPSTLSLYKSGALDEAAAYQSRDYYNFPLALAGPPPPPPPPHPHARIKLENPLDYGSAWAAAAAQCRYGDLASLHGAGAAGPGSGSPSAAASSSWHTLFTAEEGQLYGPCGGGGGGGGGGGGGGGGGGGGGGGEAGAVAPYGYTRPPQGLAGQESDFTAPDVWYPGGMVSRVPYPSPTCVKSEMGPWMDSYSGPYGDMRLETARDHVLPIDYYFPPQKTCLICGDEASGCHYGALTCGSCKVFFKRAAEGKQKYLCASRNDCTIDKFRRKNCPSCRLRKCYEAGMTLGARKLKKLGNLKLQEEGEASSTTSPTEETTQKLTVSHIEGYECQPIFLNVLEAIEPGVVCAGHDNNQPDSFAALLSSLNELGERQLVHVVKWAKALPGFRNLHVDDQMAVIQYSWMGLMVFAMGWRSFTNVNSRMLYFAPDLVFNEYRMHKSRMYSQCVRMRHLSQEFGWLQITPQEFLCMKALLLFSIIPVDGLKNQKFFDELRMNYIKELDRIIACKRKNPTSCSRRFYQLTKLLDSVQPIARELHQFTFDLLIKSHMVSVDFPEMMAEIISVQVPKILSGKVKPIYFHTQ
# Method: Protocol of the Cellular Assay of Androgen Receptor (AR) Degradation (VCaP Cells, ELISA).
# For detection Cell Signaling PathScan Sandwich Elisa Catalog #12850 Lot 11 was used. VCaP cells were cultured in ATCC DMEM+ATCC FBS and plated 40,000/well 100 μl/well in RPMI P/S with 5% CSS Omega (bovine) serum into a 96 well plate. The cells were grown for a minimum of 3 days, dosed with compounds in 0.1% DMSO (diluted with 5% CSS) and incubated with aspiration for 4 hours. 100 μl of 1× Cell Signaling lysis buffer #9803 (36 ml dH2O+4 ml Cell Signaling lysis buffer) was added. The incubation was placed on cold room shaker for 10 min at speed 8-9. 5 μl to 100 μl of Diluent was transferred to Elisa plate (0.15 ug/ml-0.075 ug/ml) and stored at 4 C overnight on cold room shaker speed 5 (gentle swirl) and then shaken next morning at 37° C. for 30 min. The preparation was washed 4×200 μl with Elisa wash buffer and aspirated with eight-channel aspirator. 100 μl/well of AR detection Ab was added after which the preparation was covered and shaken at 37° C. for 1 hr. 100 ul TMB was added, and the mixture was shaken for 5 min while under observation. When TMB turned light blue, 100 ul of Stop solution was added, and the mixture was shaken and read at 450 nm. Also read at 562 for background subtraction.
# T2 sequence (P45984 whole entry): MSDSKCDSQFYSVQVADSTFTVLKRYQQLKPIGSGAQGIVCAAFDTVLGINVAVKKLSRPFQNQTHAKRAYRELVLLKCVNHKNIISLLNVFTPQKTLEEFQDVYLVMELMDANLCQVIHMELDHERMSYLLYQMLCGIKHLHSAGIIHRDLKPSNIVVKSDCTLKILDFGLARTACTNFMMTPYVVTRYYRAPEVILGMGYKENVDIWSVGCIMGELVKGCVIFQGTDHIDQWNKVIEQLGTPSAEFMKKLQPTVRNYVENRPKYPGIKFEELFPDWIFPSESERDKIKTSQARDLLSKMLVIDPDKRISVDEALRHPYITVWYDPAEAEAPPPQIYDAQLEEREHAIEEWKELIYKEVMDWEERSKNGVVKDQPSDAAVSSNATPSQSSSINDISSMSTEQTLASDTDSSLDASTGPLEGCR
# T1 sequence (P45983 whole entry): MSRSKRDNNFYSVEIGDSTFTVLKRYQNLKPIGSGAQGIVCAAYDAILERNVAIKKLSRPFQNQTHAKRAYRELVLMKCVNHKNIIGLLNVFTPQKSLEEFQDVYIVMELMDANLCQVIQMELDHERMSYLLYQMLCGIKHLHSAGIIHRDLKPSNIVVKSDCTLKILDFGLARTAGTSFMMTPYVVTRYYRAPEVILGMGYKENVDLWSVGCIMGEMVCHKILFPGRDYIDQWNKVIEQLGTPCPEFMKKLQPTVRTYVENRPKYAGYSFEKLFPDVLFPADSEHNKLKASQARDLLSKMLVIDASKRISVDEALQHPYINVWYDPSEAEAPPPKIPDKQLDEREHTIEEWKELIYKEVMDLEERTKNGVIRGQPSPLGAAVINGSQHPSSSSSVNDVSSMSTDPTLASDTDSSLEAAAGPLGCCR
SMILES,JNK1 degradation range (JNK1),DC50 (JNK1) [µM],JNK2 degradation range (JNK2),DC50 (JNK2) [µM],Dmax at 1 µM (Androgen receptor (AR)) [%],Androgen receptor (AR) degradation in VCaP cells (Androgen receptor (AR)) [%]
"CN[C@@H](C)C(=O)N[C@H](C(=O)N1CC[C@@H]2CCN(CCc3ccc(OCCOCCOC4CCC(Nc5nccc(-c6cnn(Cc7ccccc7)c6N(C)C)n5)CC4)cc3)C[C@@H]21)C1CCCCC1 (mixture of isomers) [Example 17, (2S)—N-[(1S)-1-cyclohexyl-2-oxo-2-[6-(2-[4-[2-(2-[[(1r,4r)-4-([4-[1-benzyl-5-(dimethylamino)-1H-pyrazol-4-yl]pyrimidin-2-yl]amino)cyclohexyl]oxy]ethoxy)ethoxy]phenyl]ethyl)-octahydro-1H-pyrrolo[2,3-c]pyridin-1-yl]ethyl]-2-(methylamino)propanamide]",A (degradation more than 60%),0.1 to 1,A (degradation more than 60%),0.1 to 1,,
"CN[C@@H](C)C(=O)N[C@H](C(=O)N1CC[C@@H]2CCN(CCc3ccc(OCCOCCOCCOC4CCC(Nc5nccc(-c6cnn(Cc7ccccc7)c6N(C)C)n5)CC4)cc3)C[C@@H]21)C1CCCCC1 (mixture of isomers) [Example 18, (2S)—N-[(1S)-1-cyclohexyl-2-oxo-2-[6-[2-(4-[2-[2-(2-[[(1r,4r)-4-([4-[1-benzyl-5-(dimethylamino)-1H-pyrazol-4-yl]pyrimidin-2-yl]amino)cyclohexyl]oxy]ethoxy)-ethoxy]ethoxy]phenyl)ethyl]-octahydro-1H-pyrrolo[2,3-c]pyridin-1-yl]ethyl]-2-(methylamino)propanamide]",A (degradation more than 60%),0.001 to 0.1,A (degradation more than 60%),0.1 to 1,,
"CN[C@@H](C)C(=O)N[C@H](C(=O)N1CC[C@@H]2CCN(CCc3ccc(OCCOCCOCCOCCOC4CCC(Nc5nccc(-c6cnn(Cc7ccccc7)c6N(C)C)n5)CC4)cc3)C[C@@H]21)C1CCCCC1 (mixture of isomers) [Example 19, (2S)—N-[(1S)-1-cyclohexyl-2-oxo-2-(6-[2-[4-([1-[(1r,4r)-4-([4-[1-benzyl-5-(dimethylamino)-1H-pyrazol-4-yl]pyrimidin-2-yl]amino)cyclohexyl]-1,4,7,10-tetraoxadodecan-12-yl]oxy)phenyl]ethyl]-octahydro-1H-pyrrolo[2,3-c]pyridin-1-yl)ethyl]-2-(methylamino)propanamide]",A (degradation more than 60%),0.001 to 0.1,A (degradation more than 60%),0.1 to 1,,
"CN[C@@H](C)C(=O)N[C@H](C(=O)N1CCC[C@H]1c1nc(-c2ccc(OCCOCCOCCOCCOCCO[C@H]3CC[C@H](Nc4nccc(-c5cnn(Cc6ccccc6)c5N(C)C)n4)CC3)c3ccccc23)cs1)C1CCCCC1 [Example 12, (2S)—N-[(1S)-1-cyclohexyl-2-oxo-2-[(2S)-2-[4-[4-([1-[(1r,4r)-4-([4-[1-benzyl-5-(dimethylamino)-1H-pyrazol-4-yl]pyrimidin-2-yl]amino)cyclohexyl]-1,4,7,10,13-pentaoxapentadecan-15-yl]oxy)naphthalen-1-yl]-1,3-thiazol-2-yl]pyrrolidin-1-yl]ethyl]-2-(methylamino)propanamide]",A (degradation more than 60%),0.001 to 0.1,B (degradation between 30% and 60%),,,
"CN[C@@H](C)C(=O)N[C@H](C(=O)N1CCC[C@H]1C(=O)N[C@H]1c2ccccc2C[C@H]1OCCOCCOCCOc1ccc(N2C(=S)N(c3ccc(C#N)c(C(F)(F)F)c3)C(=O)C2(C)C)cc1)C(C)(C)C [Example 36, (2S)—N-[2-(2-[2-[2-(4-[3-[4-cyano-3-(trifluoromethyl)phenyl]-5,5-dimethyl-4-oxo-2-sulfanylideneimidazolidin-1-yl]phenoxy)ethoxy]ethoxy]ethoxy)-2,3-dihydro-1H-inden-1-yl]-1-[(2S)-3,3-dimethyl-2-[(2S)-2-(methylamino)propanamido]-butanoyl]pyrrolidine-2-carboxamide]",,,,,0 to 30,
CN[C@@H](C)C(=O)N[C@H](C(=O)N1CCC[C@H]1C(=O)N[C@H]1c2ccccc2C[C@H]1OCCOCCOCCOCCOc1ccc(N2C(=S)N(c3ccc(C#N)c(C(F)(F)F)c3)C(=O)C2(C)C)cc1)C(C)(C)C [Example 37],,,,,0 to 30,
"CN[C@@H](C)C(=O)N[C@H](C(=O)N1CCC[C@H]1C(=O)N[C@H]1c2ccccc2C[C@H]1OCCOCCOc1ccc(C(=O)N[C@H]2C(C)(C)[C@H](Oc3ccc(C#N)c(Cl)c3)C2(C)C)cc1)C(C)(C)C [Example 38, 1-[3,3-dimethyl-2-[(2S)-2-(methylamino)propanamido]-butanoyl]-N-[(1S,2R)-2-[2-[2-(4-[[(1r,3r)-3-(3-chloro-4-cyanophenoxy)-2,2,4,4-tetramethylcyclobutyl]carbamoyl]phenoxy)ethoxy]ethoxy]-2,3-dihydro-1H-inden-1-yl]pyrrolidine-2-carboxamide]",,,,,0 to 30,
"CN[C@@H](C)C(=O)N[C@H](C(=O)N1CCC[C@H]1C(=O)N[C@H]1c2ccccc2C[C@H]1OCCOCCOc1ccc(N2C(=S)N(c3ccc(C#N)c(C(F)(F)F)c3)C(=O)C2(C)C)cc1)C(C)(C)C [drawing 254, (2S)—N-[(1S,2R)-2-{2-[2-(4-{3-[4-cyano-3-(trifluoromethyl)phenyl]-5,5-dimethyl-4-oxo-2-sulfanylideneimidazolidin-1-yl}phenoxy)ethoxy]ethoxy}-2,3-dihydro-1H-inden-1-yl]-1-[(2S)-3,3-dimethyl-2-[(2S)-2-(methylamino)propanamido]butanoyl]pyrrolidine-2-carboxamide]",,,,,,29
"CN[C@@H](C)C(=O)N[C@H](C(=O)N1CCC[C@H]1C(=O)N[C@H]1c2ccccc2C[C@H]1OCCOCCOCCOc1ccc(N2C(=S)N(c3ccc(C#N)c(C(F)(F)F)c3)C(=O)C2(C)C)cc1)C(C)(C)C [drawing 255, (2S)—N-[(1S,2R)-2-(2-{2-[2-(4-{3-[4-cyano-3-(trifluoromethyl)phenyl]-5,5-dimethyl-4-oxo-2-sulfanylideneimidazolidin-1-yl}phenoxy)ethoxy]ethoxy}ethoxy)-2,3-dihydro-1H-inden-1-yl]-1-[(2 S)-3,3-dimethyl-2-[(2S)-2-(methylamino)propanamido]butanoyl]pyrrolidine-2-carboxamide]",,,,,,9
"CN[C@@H](C)C(=O)N[C@H](C(=O)N1CCC[C@H]1C(=O)N[C@H]1c2ccccc2C[C@H]1OCCOCCOCCOCCOc1ccc(N2C(=S)N(c3ccc(C#N)c(C(F)(F)F)c3)C(=O)C2(C)C)cc1)C(C)(C)C [drawing 256, (2S)—N-[(1S,2R)-2-{[1-(4-{3-[4-cyano-3-(trifluoromethyl)phenyl]-5,5-dimethyl-4-oxo-2-sulfanylideneimidazolidin-1-yl}phenyl)-1,4,7,10-tetraoxadodecan-12-yl]oxy}-2,3-dihydro-1H-inden-1-yl]-1-[(2S)-3,3-dimethyl-2-[(2S)-2-(methylamino)propanamido]butanoyl]pyrrolidine-2-carboxamide]",,,,,,9
